Test results as given in the OligoGym collection.
Values joined by “and” are separate entries in the source; they are usually repeats but may differ in a detail not shown here. Identical values can stand only once. After the bases stand the sugars from the 5' end (letter, count) and the backbone: PS all phosphorothioate, else s phosphorothioate and o phosphodiester by linkage. Methylation of C is not given here. e = 2'-O-(2-methoxyethyl) (MOE); k = constrained ethyl (cEt); d = 2'-deoxy (DNA)

Target: KRAS
Conditions: ASO

Sequence	target mRNA inhibition (A431, 2 µM)	other results
CAGTGTGACTCAGTTA (sugars k3 d10 k3, PS)	53%	–
CAGTGTTAAGAGAACT (sugars kkddddddddkekekk, PS)	35%	–
CATTCAAAGTTCACAT (sugars kdddddddddkekeke, PS)	24%	–
CATTCAAAGTTCACAT (sugars kkddddddddkekekk, PS)	96%	target mRNA inhibition (A431, 0.185 µM): 5%; target mRNA inhibition (A431, 0.556 µM): 7%; target mRNA inhibition (A431, 1.667 µM): 9%; target mRNA inhibition (A431, 5 µM): 16%
CATTGTTTAAAAAAAA (sugars k3 d10 k3, PS)	0%	–
CATTTATGTGACTAGA (sugars kddddddddddkekek, PS)	24%	–
CCATTCAAAGTTCACA (sugars kkdddddddddkdkdk, PS)	31%	–
CCATTCAAAGTTCACA (sugars kkddddddddkekekk, PS)	57%	target mRNA inhibition (A431, 0.185 µM): 0%; target mRNA inhibition (A431, 0.556 µM): 19%; target mRNA inhibition (A431, 1.667 µM): 31%; target mRNA inhibition (A431, 5 µM): 39%
CCATTCAAAGTTCACA (sugars kkkddddddddkekek, PS)	39%	–
CCATTTATGTGACTAG (sugars k3 d9 k3 e1, PS)	49%	target mRNA inhibition (A431, 0.185 µM): 28%; target mRNA inhibition (A431, 0.556 µM): 47%; target mRNA inhibition (A431, 1.667 µM): 53%; target mRNA inhibition (A431, 5 µM): 66%
CCATTTATGTGACTAG (sugars k3 d10 k3, PS)	94% and 75%	target mRNA inhibition (A431, 0.125 µM): 70% and 67%; target mRNA inhibition (A431, 0.185 µM): 30% and 14%; target mRNA inhibition (A431, 0.556 µM): 56% and 35%; target mRNA inhibition (A431, 5 µM): 83% and 72%; target mRNA inhibition (NCI-H460, 0.037 µM): 52.4%
CCATTTATGTGACTAG (sugars kkddddddddddkeke, PS)	46%	–
CTCTCTATGAAAGCTC (sugars k3 d10 k3, PS)	29%	–
CTGAATTAGTCTCCAT (sugars k3 d10 k3, PS)	48%	–
CTTGATTTGTCAGCAG (sugars k3 d10 k3, PS)	51% and 44%	–
CTTGATTTGTCAGCAG (sugars kddddddddddkekek, PS)	45%	target mRNA inhibition (A431, 0.037 µM): 62%
CTTGATTTGTCAGCAG (sugars kdddddddddkekeke, PS)	44%	target mRNA inhibition (A431, 0.037 µM): 51%
CTTGATTTGTCAGCAG (sugars kkddddddddddkeke, PS)	54%	–
CTTGATTTGTCAGCAG (sugars kkddddddddkekekk, PS)	33%	target mRNA inhibition (A431, 0.037 µM): 55%
CTTGATTTGTCAGCAG (sugars kkkdddddddddkeke, PS)	46%	–
CTTTTAATGTCACAAG (sugars k3 d10 k3, PS)	9%	–

Sequence	target mRNA inhibition (A431, 2 µM)	other results
GAAAAGTGTTTATGCA (sugars k3 d10 k3, PS)	60%	–
GAGAATGGATATTCAA (sugars k3 d10 k3, PS)	8%	–
GAGTCTTTATAGTAAT (sugars kdddddddddkekeke, PS)	21%	–
GATTGTGCTGAGCTTG (sugars k3 d9 k3 e1, PS)	30%	–
GATTGTGCTGAGCTTG (sugars k3 d10 k3, PS)	63%	–
GCATTGCTAGTTCAAA (sugars k3 d10 k3, PS)	46%	–
GCTATAATAATCCCCA (sugars k3 d10 k3, PS)	56%	target mRNA inhibition (A431, 0.185 µM): 1%; target mRNA inhibition (A431, 0.556 µM): 24%; target mRNA inhibition (A431, 1.667 µM): 55%; target mRNA inhibition (A431, 5 µM): 68%
GCTGTGAAACTCTCTA (sugars k3 d10 k3, PS)	42%	–
GCTGTGAAACTCTCTA (sugars kddddddddddkekek, PS)	41%	–
GCTGTGAAACTCTCTA (sugars kkddddddddkekekk, PS)	16%	–
GGTTAGGGGAATTACA (sugars k3 d10 k3, PS)	26%	–
GTAATTAATCCATTTA (sugars k3 d10 k3, PS)	15%	–
GTAGGGCATTTCTGAT (sugars k3 d10 k3, PS)	14%	–
GTATCTTGTTGAGCTA (sugars k3 d10 k3, PS)	56%	–
GTCCAGTGATACTTTC (sugars kkdddddddddkekek, PS)	43%	–
GTCCAGTGATACTTTC (sugars kkkddddddddkekek, PS)	21%	–
GTGAATATCTTCAAAT (sugars k3 d10 k3, PS)	0%	–
GTGTTTATGCAATGTT (sugars k3 d10 k3, PS)	–	target mRNA inhibition (A431, 0.125 µM): 83%; target mRNA inhibition (A431, 0.185 µM): 31%; target mRNA inhibition (A431, 0.556 µM): 52%; target mRNA inhibition (A431, 1.667 µM): 77%; target mRNA inhibition (A431, 5 µM): 89%; target mRNA inhibition (NCI-H460, 0.037 µM): 76.8%
GTGTTTATGCAATGTT (sugars kkddddddddddkeke, PS)	73%	target mRNA inhibition (A431, 0.185 µM): 44%; target mRNA inhibition (A431, 0.556 µM): 71%; target mRNA inhibition (A431, 1.667 µM): 83%; target mRNA inhibition (A431, 5 µM): 92%
GTGTTTATGCAATGTT (sugars kkkddddddddkekek, PS)	66%	target mRNA inhibition (A431, 0.185 µM): 33%; target mRNA inhibition (A431, 0.556 µM): 55%; target mRNA inhibition (A431, 1.667 µM): 69%; target mRNA inhibition (A431, 5 µM): 78%
GTTTATGCAATGTTAA (sugars k3 d10 k3, PS)	55%	–

Sequence	target mRNA inhibition (A431, 2 µM)	other results
TAAAAAAAAAATTAAT (sugars k3 d10 k3, PS)	1%	–
TAACCAGTGTTAAGAG (sugars k3 d10 k3, PS)	40%	–
TAATAATCCCCATTTC (sugars k3 d10 k3, PS)	9%	–
TAATCTTTTAATGTCA (sugars k3 d10 k3, PS)	7%	–
TAATGGTGAATATCTT (sugars k3 d10 k3, PS)	11%	–
TACTAGTATGCCTTAA (sugars k3 d10 k3, PS)	16%	–
TACTTTTTGACAAATG (sugars k3 d10 k3, PS)	37%	–
TAGGGCATTTCTGATG (sugars k3 d10 k3, PS)	20%	–
TAGTGATTAGGTCAAA (sugars k3 d10 k3, PS)	21%	–
TAGTGATTAGGTCAAA (sugars kkdddddddddkekek, PS)	51%	–
TAGTGATTAGGTCAAA (sugars kkddddddddkekekk, PS)	42%	–
TATAATGGTGAATATC (sugars k3 d10 k3, PS)	7%	–
TATTAGGAGTCTTTAT (sugars k3 d10 k3, PS)	13%	–
TCAACTGCATGCACCA (sugars k3 d10 k3, PS)	52%	–
TCACTTCATTGTTTAA (sugars k3 d10 k3, PS)	32%	–
TCATTACTTTTTGACA (sugars k3 d10 k3, PS)	4%	–
TCCAGTGATACTTTCA (sugars k3 d9 k3 e1, PS)	47%	–
TCCAGTGATACTTTCA (sugars k3 d10 k3, PS)	51%	–
TCCATTTATGTGACTA (sugars k3 d9 k3 e1, PS)	23%	–
TCCATTTATGTGACTA (sugars kdddddddddkekeke, PS)	15%	–
TCCATTTATGTGACTA (sugars kkddddddddddkeke, PS)	22%	–

Sequence	target mRNA inhibition (A431, 2 µM)	other results
TCCATTTATGTGACTA (sugars kkddddddddkekekk, PS)	29%	–
TCTCTATGAAAGCTCA (sugars k3 d10 k3, PS)	50%	target mRNA inhibition (A431, 0.037 µM): 61%; target mRNA inhibition (A431, 5 µM): 96% and 92%; target mRNA inhibition (NCI-H460, 0.037 µM): 49.7%
TGACTAATAGCAGTGG (sugars k3 d10 k3, PS)	58%	target mRNA inhibition (A431, 0.037 µM): 64%; target mRNA inhibition (A431, 5 µM): 96% and 93%; target mRNA inhibition (NCI-H460, 0.037 µM): 53.3%
TGATTTGTCAGCAGGA (sugars k3 d9 k3 e1, PS)	63%	target mRNA inhibition (A431, 0.185 µM): 26%; target mRNA inhibition (A431, 0.556 µM): 52%; target mRNA inhibition (A431, 1.667 µM): 70%; target mRNA inhibition (A431, 5 µM): 80%
TGATTTGTCAGCAGGA (sugars k3 d10 k3, PS)	59%	target mRNA inhibition (A431, 0.185 µM): 19% and 0%; target mRNA inhibition (A431, 0.556 µM): 58% and 36%; target mRNA inhibition (A431, 1.667 µM): 72% and 58%; target mRNA inhibition (A431, 5 µM): 81% and 74%
TGATTTGTCAGCAGGA (sugars kddddddddddkekek, PS)	47%	–
TGATTTGTCAGCAGGA (sugars kkdddddddddkekek, PS)	45%	–
TGGTGTAACATAGGTT (sugars k3 d10 k3, PS)	58%	target mRNA inhibition (A431, 0.185 µM): 0%; target mRNA inhibition (A431, 0.556 µM): 35%; target mRNA inhibition (A431, 1.667 µM): 61%; target mRNA inhibition (A431, 5 µM): 78%
TGGTGTAACATAGGTT (sugars kkddddddddkekekk, PS)	55%	target mRNA inhibition (A431, 0.185 µM): 11%; target mRNA inhibition (A431, 0.556 µM): 33%; target mRNA inhibition (A431, 1.667 µM): 58%; target mRNA inhibition (A431, 5 µM): 68%
TGTAAATATAGCCCCA (sugars k3 d10 k3, PS)	34%	–
TGTACTAGTATGCCTT (sugars k3 d10 k3, PS)	66%	target mRNA inhibition (A431, 0.185 µM): 18% and 9%; target mRNA inhibition (A431, 1.667 µM): 61% and 43%; target mRNA inhibition (A431, 5 µM): 74% and 64%
TGTAGGGCATTTCTGA (sugars k3 d10 k3, PS)	0%	–
TGTTGAGCTATCCAAA (sugars k3 d10 k3, PS)	37%	–
TGTTTATGCAATGTTA (sugars kkdddddddddkekek, PS)	56%	target mRNA inhibition (A431, 0.185 µM): 50%; target mRNA inhibition (A431, 0.556 µM): 46%; target mRNA inhibition (A431, 1.667 µM): 69%; target mRNA inhibition (A431, 5 µM): 82%
TTAATGTCACAAGCAG (sugars k3 d10 k3, PS)	52%	–
TTACTTTTTGACAAAT (sugars k3 d10 k3, PS)	0%	–
TTAGGAGTCTTTATAG (sugars k3 d10 k3, PS)	30%	–
TTAGTGATTAGGTCAA (sugars kkddddddddddkeke, PS)	22%	–
TTCTGTCTATTCATAC (sugars k3 d10 k3, PS)	10%	–
TTGATTTGTCAGCAGG (sugars k3 d9 k3 e1, PS)	55% and 30%	–
